Data: US10519143B2, “Substituted-indole-compounds as estrogen receptor down-regulators” (LUOXIN PHARMACEUTICAL (SHANGHAI) CO., LTD, priority 2016, dated 2019)

System: MCF-7 cells
Experiment: MCF-7 cell proliferation inhibition assay
Type: cell-based
Conditions: Homo sapiens, MCF7, 144 h, read-out: anti-proliferation in MCF-7 cells (nM)
Experimental: Experimental Reagent: RPMI 1640 medium, fetal bovine serum, Promega CellTiter-Glo reagent. The cell line MCF-7 was purchased from The European Collection of Authenticated Cell Cultures (ECACC). Envision Multilabel Reader (PerkinElmer). Experimental Method: […] The cell plate was placed in a carbon dioxide incubator overnight. […] The cell plate was incubated in a carbon dioxide incubator for 6 days. Promega CellTiter-Glo reagent was added to the cell plate at 25 μL per well, cells were incubated for 10 minutes at room temperature to stabilize the luminescence signal, which was measured using PerkinElmer Envision Multilabel Reader. Data Analysis: […] (Model 205 in XLFIT5, iDBS)

| Compound | IC50 [nM] |
| --- | --- |
| CC/C(=C(/c1ccc(/C=C/C(=O)O)cc1)c1cc2ccccc2[nH]1)c1ccsc1C#N [Compound I-18] | 22 |
| CC/C(=C(/c1ccc(/C=C/C(=O)O)cc1)c1cc2ccccc2[nH]1)c1ccc(F)cc1F [Compound I-45] | 103 |
| CC/C(=C(\c1cc2ccccc2[nH]1)c1c(F)cc(/C=C/C(=O)O)cc1F)c1ccc(F)cc1Cl [Compound I-57] | 32 |
| CC/C(=C(/c1ccc(/C=C/C(=O)O)cc1)c1cc2ccccc2[nH]1)c1cc(Cl)sc1Cl [Compound I-17] | 8.29 |
| CC/C(=C(/c1ccc(/C=C/C(=O)O)cc1)c1cc2ccccc2[nH]1)c1c(C)cccc1Cl [Compound I-29] | 30 |
| CC/C(=C(/c1ccc(OCCN2CC(CF)C2)cc1)c1cc2ccccc2[nH]1)c1ccc(F)cc1Cl [II-1] | 4.57 |

Same assay, conditions: Homo sapiens, MCF7, 144 h; MCF-7 cells, 6 days incubation, CellTiter-Glo; read-out: anti-proliferation in MCF-7 cells

| Compound | IC50 [nM] |
| --- | --- |
| CC(C)C/C(=C(/c1ccc(/C=C/C(=O)O)cc1)c1cc2ccccc2[nH]1)c1ccc(F)cc1Cl [Compound I-27] | 8.36 |
| CC/C(=C(/c1ccc(/C=C/C(=O)O)cc1)c1[nH]c2ccccc2c1Br)c1ccc(F)cc1Cl [Compound I-7] | 9.52 |
| CC/C(=C(/c1ccc(/C=C/C(=O)O)cc1)c1[nH]c2ccccc2c1C#N)c1ccc(OC)cc1Cl [Compound I-42] | 0.77 |
| CC/C(=C(/c1ccc(OCCN2CC(CF)C2)cc1)c1cc2ccccc2[nH]1)c1ccccc1Cl [II-6] | 2.46 |
| CC/C(=C(/c1ccc(OCCN2CC(CC#N)C2)cc1)c1cc2ccccc2[nH]1)c1ccc(Cl)cc1C(F)(F)F [II-9] | 51 |
| CC/C(=C(/c1ccc(/C=C/C(=O)O)cc1)c1[nH]c2ccccc2c1Cl)c1ccc(Cl)cc1 [Compound I-24] | 21.5 |
| CC/C(=C(/c1ccc(/C=C/C(=O)O)cc1)c1cc2ccccc2[nH]1)c1cccc(C(F)(F)F)c1 [Compound I-4] | 325 |
| CC/C(=C(/c1ccc(/C=C/C(=O)O)cc1)c1[nH]c2ccccc2c1C#N)c1ccc(Cl)cc1Cl [Compound I-53] | 4.35 |
| CC/C(=C(/c1ccc(/C=C/C(=O)O)cc1)c1cc2ccccc2[nH]1)c1ccccc1OC(F)(F)F [Compound I-3] | 206 |
| CC/C(=C(/c1ccc(/C=C/C(=O)O)cc1)c1[nH]c2ccccc2c1Br)c1ccccc1C(F)(F)F [Compound I-11] | 8.53 |
| CC/C(=C(/c1ccc(/C=C/C(=O)O)cc1)c1[nH]c2ccccc2c1Cl)c1ccc(Cl)cc1C#N [Compound I-22] | 0.86 |
| CC/C(=C(/c1ccc(/C=C/C(=O)O)cc1)c1cc2ccc(F)cc2[nH]1)c1ccc(F)cc1Cl [Compound I-9] | 167 |
| CC/C(=C(/c1ccc(OCCN2CC(CF)C2)cc1)c1cc2ccccc2[nH]1)c1ccccc1C#N [II-7] | 2.61 |
| CC/C(=C(/c1ccc(/C=C/C(=O)O)cc1)c1cc2ccccc2[nH]1)c1ccccc1C [Compound I-50] | 33 |
| CC/C(=C(/c1ccc(/C=C/C(=O)O)cc1)c1cc2cnccc2[nH]1)c1ccc(F)cc1Cl [Compound I-46] | 393 |
| CC/C(=C(/c1ccc(/C=C/C(=O)O)cc1)c1[nH]c2ccccc2c1Cl)c1ccc(OC)cc1 [Compound I-33] | 2.86 |
| CC/C(=C(/c1ccc(/C=C/C(=O)O)cc1)c1[nH]c2ccccc2c1Cl)c1cc(Cl)sc1Cl [Compound I-35] | 20 |
| CC/C(=C(/c1ccc(/C=C/C(=O)O)cc1)c1cc2ccccc2[nH]1)c1ccc(Cl)cc1C(F)(F)F [Compound I-14] | 4.11 |
| CC/C(=C(/c1ccc(/C=C/C(=O)O)cc1)c1cc2ccccc2[nH]1)c1cccc(F)c1C#N [Compound I-52] | 40 |

| Compound | IC50 [nM] |
| --- | --- |
| CC/C(=C(/c1ccc(/C=C/C(=O)O)cc1)c1cc2ccccc2[nH]1)c1ccc(OC)cc1Cl [Compound I-41] | 3.91 |
| CC/C(=C(/c1ccc(/C=C/C(=O)O)cc1)c1[nH]c2ccccc2c1Cl)c1ccc(Cl)cc1C(F)(F)F [Compound I-44] | 5.84 |
| CC/C(=C(/c1ccc(/C=C/C(=O)O)cc1)c1[nH]c2ccccc2c1C)c1cccc(C)c1 [Compound I-54] | 23 |
| CC/C(=C(/c1ccc(/C=C/C(=O)O)cc1)c1[nH]c2ccccc2c1F)c1ccc(F)cc1Cl [Compound I-40] | 2.31 |
| CC/C(=C(/c1ccc(/C=C/C(=O)O)cc1)c1[nH]c2ccccc2c1C)c1ccc(F)cc1Cl [Compound I-19] | 4.78 |
| CC/C(=C(/c1ccc(/C=C/C(=O)O)cc1)c1cc2ccccc2[nH]1)c1ccc2c(c1)OCCO2 [Compound I-30] | 48 |
| CC/C(=C(/c1ccc(/C=C/C(=O)O)cc1)c1cc2ccccc2[nH]1)c1ccccc1C#N [Compound I-49] | 42 |
| CC/C(=C(/c1ccc(/C=C/C(=O)NS(C)(=O)=O)cc1)c1cc2ccccc2[nH]1)c1ccc(Cl)cc1C(F)(F)F [Compound I-48] | 4.88 |
| CC/C(=C(/c1ccc(/C=C/C(=O)O)cc1)c1cc2ccccc2[nH]1)c1cccs1 [Compound I-6] | 321 |
| CC/C(=C(/c1ccc(/C=C/C(=O)O)cc1)c1[nH]c2ccccc2c1Cl)c1ccc2c(c1)OCCO2 [Compound I-31] | 3.66 |
| CC/C(=C(/c1ccc(/C=C/C(=O)O)cc1)c1[nH]c2ccccc2c1Cl)c1ccc(F)cc1Cl [Compound I-8] | 5.59 |
| CC/C(=C(/c1ccc(/C=C/C(=O)O)cc1)c1cc2ccccc2[nH]1)c1cccc(OC(F)(F)F)c1 [Compound I-2] | 282 |
| CC/C(=C(/c1ccc(OCCN2CC(CC#N)C2)cc1)c1cc2ccccc2[nH]1)c1ccccc1C#N [II-11] | 7.43 |
| CC/C(=C(/c1ccc(OCCN2CC(CC#N)C2)cc1)c1[nH]c2ccccc2c1Cl)c1ccc(Cl)cc1C#N [II-12] | 1.56 |
| CC/C(=C(/c1ccc(/C=C/C(=O)O)cc1)c1cc2ccccc2[nH]1)c1ccc(C#N)cc1Cl [Compound I-34] | 49 |
| CC/C(=C(/c1ccc(OCCN2CC(CF)C2)cc1)c1cc2cc(F)ccc2[nH]1)c1ccc(F)cc1Cl [II-3] | 6.77 |
| CC/C(=C(/c1ccc(/C=C/C(=O)O)cc1)c1cc2ccccc2[nH]1)c1ccc(OC)cc1 [Compound I-32] | 61 |
| CC/C(=C(/c1ccc(/C=C/C(=O)O)cc1)c1[nH]c2ccccc2c1C#N)c1cc(Cl)sc1Cl [Compound I-36] | 6.84 |
| CC/C(=C(/c1ccc(/C=C/C(=O)O)cc1)c1[nH]c2ccccc2c1Cl)c1csc(C)c1 [Compound I-56] | 35 |

| Compound | IC50 [nM] |
| --- | --- |
| CC/C(=C(/c1ccc(OCCN2CC(CC#N)C2)cc1)c1cc2ccccc2[nH]1)c1ccccc1Cl [II-10] | 3.92 |
| CC/C(=C(/c1ccc(/C=C/C(=O)O)cc1)c1[nH]c2ccccc2c1Cl)c1ccc(OC)cc1C#N [Compound I-43] | 1.56 |
| CC/C(=C(/c1ccc(OCCN2CC(CF)C2)cc1)c1[nH]c2ccccc2c1Cl)c1ccc(F)cc1Cl [II-5] | 7.23 |
| CC/C(=C(/c1ccc(/C=C/C(=O)O)cc1)c1cc2ccccc2[nH]1)c1ccccc1Cl [Compound I-51] | 9.24 |
| CC/C(=C(/c1ccc(OCCN2CC(CF)C2)cc1)c1cc2ccc(F)cc2[nH]1)c1ccc(F)cc1Cl [II-2] | 7.75 |
| CC/C(=C(/c1ccc(/C=C/C(=O)O)cc1)c1cc2ccccc2[nH]1)c1ccc(Cl)cc1C#N [Compound I-21] | 14 |
| CC/C(=C(/c1ccc(/C=C/C(=O)O)cc1)c1[nH]c2ccccc2c1C#N)c1ccc(F)cc1Cl [Compound I-23] | 4.84 |
| CC/C(=C(/c1ccc(/C=C/C(=O)O)cc1)c1cc2ccccc2[nH]1)c1ccc(Cl)cc1Cl [Compound I-37] | 11 |
| CC/C(=C(/c1ccc(OCCN2CC(CC#N)C2)cc1)c1[nH]c2ccccc2c1Cl)c1ccc(F)cc1Cl [II-8] | 5 |
| CC/C(=C(/c1ccc(/C=C/C(=O)O)cc1)c1[nH]c2ccccc2c1Cl)c1ccsc1C#N [Compound I-15] | 7.56 |
| CC/C(=C(/c1ccc(/C=C/C(N)=O)cc1)c1cc2ccccc2[nH]1)c1ccc(Cl)cc1C(F)(F)F [Compound I-47] | 4.27 |
| CC/C(=C(\c1cc2ccccc2[nH]1)c1c(F)cc(OCCN2CC(CF)C2)cc1F)c1ccc(F)cc1Cl [II-4] | 6.86 |
| CC/C(=C(/c1ccc(/C=C/C(=O)O)cc1)c1cc2ccccc2[nH]1)c1ccc(C(F)(F)F)cc1Cl [Compound I-13] | 27 |
| CC/C(=C(/c1ccc(/C=C/C(=O)O)cc1)c1cc2ccccc2[nH]1)c1ccc(F)cc1C(F)(F)F [Compound I-12] | 13 |
| CC/C(=C(/c1ccc(/C=C/C(=O)O)cc1)c1[nH]c2ccccc2c1Cl)c1ccc(Cl)nc1C#N [Compound I-55] | 2.42 |
| CC/C(=C(/c1ccc(/C=C/C(=O)O)cc1)c1[nH]c2ccccc2c1Cl)c1ccc(Cl)c(C)c1 [Compound I-28] | 69 |
| CC/C(=C(/c1ccc(/C=C/C(=O)O)cc1)c1[nH]c2ccccc2c1Cl)c1ccccc1C(F)(F)F [Compound I-10] | 13 |
| CC/C(=C(/c1ccc(/C=C/C(=O)O)cc1)c1cc2ccccc2[nH]1)c1ccccc1C(F)(F)F [Compound I-5] | 8.04 |
